Experimental data from patent US10080812B2, “Radioactive iodine labeled pyrido[1,2-a]benzoimidazole derivative compound” (priority 2015, dated 2018).

How the values were obtained:
[1] = Log P value measurement (1-octanol/phosphate buffer); format: physicochemical; conditions: 1-octanol / 0.1 mol/L phosphate buffer solution pH 7.4
Experimental: Each of [^125I]BIP-1 to -4 (125 kBq) obtained by the method shown in Example 9 was added to a centrifuge tube containing 1-octanol (3.00 mL) and a 0.1 mol/L phosphate buffer solution (pH 7.4, 3.00 mL), vortexed for 2 minutes, and then centrifuged at 4,000×g for 10 minutes. 500 μL of a solution was collected from each layer, and the radioactivity thereof was then measured. A partition coefficient was determined from the 1-octanol/phosphate buffer solution ratio of radioactivity.

tau = test: In vitro autoradiography using autopsied brain tissue sections of an Alzheimer's disease patient (temporal lobe); format: binding, human; conditions: for radioactivity accumulation in the brain gray matter of the temporal lobe / binding affinity for tau: AD brain section, 370 kBq/mL, 2 h room temperature; for nonspecific binding to the brain white matter: AD brain sections
Experimental: (§1) Autopsied brain tissue sections of an Alzheimer's disease (AD) patient (sections from a frontal lobe site and a temporal lobe site, 6 μm) were used, which were provided from Graduate School of Medicine, Kyoto University. Deparaffinization treatment was performed by washing with xylene (15 min×2), ethanol (1 min×2), a 90 vol % aqueous ethanol solution (1 min×1), an 80 vol % aqueous ethanol solution (1 min×1), a 70 vol % aqueous ethanol solution (1 min×1), and purified water (2.5 min×2). A 10 vol % or 50 vol % aqueous ethanol solution of each of [^125I]BIP-1 to -4 (370 kBq/mL) obtained by the method shown in Example 9 was added thereto, and the tissue sections were incubated at room temperature for 2 hours. The tissue sections were washed with a 50 vol % aqueous ethanol solution (2 hr×1), then exposed to an imaging plate (BAS-SR2025 manufactured by Fujifilm Corp.) for 12 hours, and analyzed using a bioimaging analyzer (bioimaging analyzer BAS-5000 manufactured by Fujifilm Corp.). Multi Gauge manufactured by Fujifilm Corp. was used in quantitative analysis.
Senile plaque (SP) and neurofibrillary tangle (NFT) were stained using sections near the brain sections used in autoradiography. An anti-Aβ1-42 monoclonal antibody (BC05, manufactured by Wako Pure Chemical Industries, Ltd.) was used as a primary antibody in the immunostaining of SP, and an anti-phosphorylated tau monoclonal antibody (AT8, manufactured by Thermo Fisher Scientific Inc.) was used as an antibody in the immunostaining of NFT. Deparaffinization treatment was performed by washing with xylene (15 min×2), ethanol (1 min×2), a 90 vol % aqueous ethanol solution (1 min×1), an 80 vol % aqueous ethanol solution (1 min×1), a 70 vol % aqueous ethanol solution (1 min×1), and purified water (2.5 min×2). The antigens were retrieved by autoclaving (15 min) in a 0.01 mol/L citrate buffer solution (pH 6.0) and formic acid treatment (5 min). The tissue sections were washed with running water (5 min) and then washed with PBS-Tween 20 (2 min×1). The tissue sections were reacted with primary antibody solutions at room temperature for 1 hour and then washed with PBS-Tween 20 (5 min×3). The tissue sections were reacted with Histofine Simple Stain MAX-PO (MULTI) (manufactured by Nichirei Biosciences Inc.) at room temperature for 30 minutes and then washed with PBS-Tween 20 (3 min×3) and TBS (5 min×1). Finally, the tissue sections were reacted with a DAB solution at room temperature for 1 minute. The tissue sections were washed with distilled water (1 min×1) to terminate the reaction. The brain tissue sections were mounted on slides and then observed under a microscope (BZ-9000 manufactured by Keyence Corporation).

[2] = Comparison of intracerebral kinetics in mice; format: in vivo, ddY male mice; conditions: for radioactivity in the brain: mouse, i.v. tail vein; for Brain2 min/60 min: ratio of radioactivity in the brain between 2 and 60 min after administration
Experimental: Each of [^125I]BIP-1 to -4 obtained by the method shown in Example 9 was diluted with saline containing 10 vol % ethanol and 0.1 vol % Tween 80. Each of [^125I]BIP-1 to -4 was administered to a group of 5-week-old ddY male mice (26 to 28 g; each group involved 5 mice) from the tail veins thereof at 25.0 to 37.5 kBq (100 μL) per mouse. After 2, 10, 30, or 60 minutes, the mice were slaughtered. After blood collection, the brains were taken out, and their weights and radioactivity were measured. As for [^125I]BIP-3, the principal organs were also excised, and their weights and radioactivity were measured.

amyloid β protein (Aβ) = target: T1, amyloid β protein (Aβ) (Homo sapiens, UniProt P05067); test: In vitro autoradiography using autopsied brain tissue sections of an Alzheimer's disease patient (frontal lobe); format: binding; conditions: AD brain section, frontal lobe, 370 kBq/mL, 2 h room temperature
T1 construct: from tissue; host or cells: autopsied AD patient brain, frontal lobe, 6 µm paraffin sections (Graduate School of Medicine, Kyoto University)
T1 sequence (P05067 672-713 limits assumed): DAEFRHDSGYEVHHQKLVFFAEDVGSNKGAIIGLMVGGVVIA
Experimental: as §1
Senile plaque (SP) and neurofibrillary tangle (NFT) were stained using sections near the brain sections used in autoradiography. An anti-Aβ1-42 monoclonal antibody (BC05, manufactured by Wako Pure Chemical Industries, Ltd.) was used as a primary antibody in the immunostaining of SP, and an anti-phosphorylated tau monoclonal antibody (AT8, manufactured by Thermo Fisher Scientific Inc.) was used as an antibody in the immunostaining of NFT. Deparaffinization treatment was performed by washing with xylene (15 min×2), ethanol (1 min×2), a 90 vol % aqueous ethanol solution (1 min×1), an 80 vol % aqueous ethanol solution (1 min×1), a 70 vol % aqueous ethanol solution (1 min×1), and purified water (2.5 min×2). The antigens were retrieved by autoclaving (15 min) in a 0.01 mol/L citrate buffer solution (pH 6.0) and formic acid treatment (5 min). The tissue sections were washed with running water (5 min) and then washed with PBS-Tween 20 (2 min×1). […]

| SMILES | Log P [1] | autoradiography images compared with [125I]BIP-1 and [125I]BIP-2 (tau; temporal and frontal lobe sections) | radioactivity in the brain ([2]; 2 min after administration) [% ID/g] | radioactivity in the brain ([2]; 10 min after administration) [% ID/g] | radioactivity in the brain ([2]; 30 min after administration) [% ID/g] | radioactivity in the brain ([2]; 60 min after administration) [% ID/g] | Brain2 min/60 min [2] | radioactivity accumulation in the brain gray matter of the temporal lobe / binding affinity for tau (tau) | nonspecific binding to the brain white matter (tau) | radioactivity accumulation in the frontal lobe section / binding affinity for the amyloid β protein (Aβ) (amyloid β protein (Aβ)) |
| --- | --- | --- | --- | --- | --- | --- | --- | --- | --- | --- |
| [125I]c1ccn2c(c1)nc1ccccc12 [[^125I]BIP-4, 3-[^125I]iodobenzo[4,5]imidazo[1,2-a]pyridine] | 2.35 | images equivalent to [^125I]BIP-1 and [^125I]BIP-2 | 2.37 | 0.36 | 0.09 | 0.06 | 39.5 | – | – | – |
| [125I]c1ccc2c(c1)nc1cc(-c3ccccc3)ccn12 [[^125I]BIP-1, 7-[^125I]iodo-3-phenylbenzo[4,5]imidazo[1,2-a]pyridine] | 2.64 | – | 3.51 | 2.14 | 0.65 | 0.23 | 15.3 | have binding affinity for tau | low nonspecific binding | low |
| [125I]c1ccc(-c2ccn3c(c2)nc2ccccc23)cc1 [[^125I]BIP-2, 3-(4-[^125I]iodophenyl)benzo[4,5]imidazo[1,2-a]pyridine] | 2.61 | – | 2.73 | 1.73 | 0.57 | 0.26 | 10.4 | have binding affinity for tau | low nonspecific binding | low |
